Assay results reported in patent US20180371044A1, “PEPTIDOMIMETIC MACROCYCLES” (Aileron Therapeutics, Inc., priority 2015, published 2018).
Where a SMILES comes first, the peptide text is derived from it. Bridges are numbered along the chain shown (N, C = ends). [ ]: non-standard residue; d: D form. NiPrTyr = CC(C)N[C@@H](Cc1ccc(O)cc1)C(=O)O; NMeY = CN[C@@H](Cc1ccc(O)cc1)C(=O)O; R8 = C=CCCCCCC[C@@](C)(N)C(=O)O; S5 = C=CCCC[C@](C)(N)C(=O)O; hSer = N[C@@H](CCO)C(=O)O; Nle = CCCC[C@H](N)C(=O)O; Aib = CC(C)(N)C(=O)O

Molecular target: T1, human GHRH receptor (hGHRHR) (Homo sapiens, UniProt Q02643)
T1 construct: expressed in transfected cells; host or cells: Human 293 cells
T1 sequence (Q02643 23-423): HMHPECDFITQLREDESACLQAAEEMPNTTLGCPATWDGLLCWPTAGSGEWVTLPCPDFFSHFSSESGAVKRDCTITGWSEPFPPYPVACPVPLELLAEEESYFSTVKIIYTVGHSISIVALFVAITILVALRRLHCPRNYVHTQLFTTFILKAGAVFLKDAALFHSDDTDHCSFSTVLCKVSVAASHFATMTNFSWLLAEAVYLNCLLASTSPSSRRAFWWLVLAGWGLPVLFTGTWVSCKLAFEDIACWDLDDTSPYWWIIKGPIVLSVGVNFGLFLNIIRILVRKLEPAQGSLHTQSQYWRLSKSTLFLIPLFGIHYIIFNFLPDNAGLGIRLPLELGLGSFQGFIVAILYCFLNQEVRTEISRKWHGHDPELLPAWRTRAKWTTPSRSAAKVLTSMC
Test: GHRHR agonism measured by cAMP (HTRF) in human 293 cells expressing hGHRHR;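 further: receptor expressed transiently or stably, cells stimulated in serum-free medium, EC50 from a non-linear dose-response fit, maximal response defined by reference GHRH stimulation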
Assay type: cell-based
Conditions: 30 min at RT
Protocol: GHRH (1-29) and cross-linked peptidomimetic macrocycles were tested for agonism at the human GHRH receptor (hGHRHR) at various concentrations. Human 293 cells transiently or stably expressing hGHRHR were detached from cell culture flasks with versene (Life Technologies™), suspended in serum-free medium (50 k cells/assay point), and stimulated for 30 min at RT with GHRH (1-29) (Bachem™) or cross-linked peptidomimetic macrocycles. cAMP was quantified using an HTRF®-based assay (CisBio) and used according to the manufacturer's instructions. An EC50 for each agonist was calculated from a non-linear fit of response vs dose (GraphPad™ Prism). The maximum response was determined by stimulating with 10 μM GHRH (1-29). (+=>50 nm; ++=>25-50 nm; +++=>10-25 nm; ++++=>1-10 nm; +++++=≤1 nm).

Question: For CCCC[C@H](NC(=O)[C@@H](NC(=O)[C@H](C)NC(=O)[C@H](CCC(N)=O)NC(=O)[C@H](CC(C)C)NC(=O)[C@H](C)NC(=O)[C@H](CCCCN)NC(=O)[C@H](CCCNC(=N)N)NC(=O)[C@]1(C)CCCC=CCCCCCC[C@@](C)(NC(=O)[C@H](CCCNC(=N)N)NC(=O)[C@H](Cc2ccc(O)cc2)NC(=O)[C@H](CO)NC(=O)[C@H](C)NC(=O)[C@@H](NC(=O)[C@H](Cc2ccccc2)NC(=O)[C@@H](NC(=O)[C@H](C)NC(=O)[C@H](CC(=O)O)NC(=O)[C@H](C)NC(=O)[C@H](Cc2ccc(O)cc2)NC)[C@@H](C)CC)[C@@H](C)O)C(=O)N[C@@H](C(C)C)C(=O)N[C@@H](CC(C)C)C(=O)N[C@@H](C)C(=O)N[C@@H](CCC(N)=O)C(=O)N[C@@H](CC(C)C)C(=O)N[C@@H](CO)C(=O)N1)[C@@H](C)CC)C(=O)N[C@@H](CO)C(=O)N[C@@H](CCCNC(=N)N)C(N)=O [SP-61] (H-[NMeY]ADAIFTASYR[R8]VLAQLS[S5]RKALQAI[Nle]SR-NH2; staple 12-19), which EC50 is on record?
Answer: 10 to 25 nM

Question: How did the EC50 turn out when CC[C@H](C)[C@H](NC(=O)[C@H](C)NC(=O)[C@H](CC(=O)O)NC(=O)[C@H](C)NC(=O)[C@H](Cc1ccc(O)cc1)NC)C(=O)N[C@@H](Cc1ccccc1)C(=O)N[C@H](C(=O)N[C@@H](C)C(=O)N[C@@H](CO)C(=O)N[C@@H](Cc1ccc(O)cc1)C(=O)N[C@@H](CCCNC(=N)N)C(=O)N[C@]1(C)CCCCCCC=CCCC[C@@](C)(C(=O)N[C@@H](CCCNC(=N)N)C(=O)N[C@@H](CCCCN)C(=O)N[C@@H](C)C(=O)N[C@@H](CC(C)C)C(=O)N[C@@H](CCC(N)=O)C(=O)N[C@@H](CC(=O)O)C(=O)N[C@H](C(=O)N[C@@H](CCOC)C(=O)N[C@@H](CO)C(=O)N[C@@H](CCCNC(=N)N)C(N)=O)[C@@H](C)CC)NC(=O)[C@H](CO)NC(=O)[C@H](CC(C)C)NC(=O)[C@H](CCC(N)=O)NC(=O)[C@H](C)NC(=O)[C@H](CC(C)C)NC(=O)[C@H](C(C)C)NC1=O)[C@@H](C)O [SP-68] (H-[NMeY]ADAIFTASYR[R8]VLAQLS[S5]RKALQDI[hSer](Me)SR-NH2; staple 12-19) was run?
Answer: 10 to 25 nM

Question: How did the EC50 turn out when CCCC[C@H](NC(=O)[C@@H](NC(=O)[C@H](CC(=O)O)NC(=O)[C@H](CCC(N)=O)NC(=O)[C@H](CC(C)C)NC(=O)[C@H](C)NC(=O)[C@H](CCCCN)NC(=O)[C@H](CCCNC(=N)N)NC(=O)[C@H](C)NC(=O)[C@H](CO)NC(=O)[C@H](CC(C)C)NC(=O)[C@H](CCC(N)=O)NC(=O)[C@H](C)NC(=O)[C@H](CC(C)C)NC(=O)[C@@H](NC(=O)[C@H](CCCCN)NC(=O)[C@H](CCCNC(=N)N)NC(=O)[C@H](Cc1ccc(O)cc1)NC(=O)[C@H](CO)NC(=O)[C@H](C)NC(=O)[C@@H](NC(=O)[C@H](Cc1ccccc1)NC(=O)[C@@H](NC(=O)[C@H](C)NC(=O)[C@H](CC(=O)O)NC(=O)[C@H](C)NC(=O)[C@H](Cc1ccc(O)cc1)NC(C)C)[C@@H](C)CC)[C@@H](C)O)C(C)C)[C@@H](C)CC)C(=O)N[C@@H](CO)C(=O)N[C@@H](CCCNC(=N)N)C(N)=O [SP-37] (H-[NiPrTyr]ADAIFTASYRKVLAQLSARKALQDI[Nle]SR-NH2) was run?
Answer: 1 to 10 nM

Question: For CCCC[C@H](NC(=O)[C@@H](NC(=O)[C@H](CC(=O)O)NC(=O)[C@H](CCC(N)=O)NC(=O)[C@]1(C)CCCC=CCCCCCC[C@@](C)(NC(=O)[C@H](C)NC(=O)[C@H](CC(C)C)NC(=O)[C@@H](NC(=O)[C@H](CCCCN)NC(=O)[C@H](CCCNC(=N)N)NC(=O)[C@H](Cc2ccc(O)cc2)NC(=O)[C@H](CO)NC(=O)[C@H](C)NC(=O)[C@@H](NC(=O)[C@H](Cc2ccccc2)NC(=O)[C@@H](NC(=O)[C@H](C)NC(=O)[C@H](CC(=O)O)NC(=O)[C@H](C)NC(=O)[C@H](Cc2ccc(O)cc2)NC)[C@@H](C)CC)[C@@H](C)O)C(C)C)C(=O)N[C@@H](CC(C)C)C(=O)N[C@@H](CO)C(=O)N[C@@H](C)C(=O)N[C@@H](CCCNC(=N)N)C(=O)N[C@@H](CCCCN)C(=O)N[C@@H](C)C(=O)N1)[C@@H](C)CC)C(=O)N[C@@H](CO)C(=O)N[C@@H](CCCNC(=N)N)C(N)=O [SP-28] (H-[NMeY]ADAIFTASYRKVLA[R8]LSARKA[S5]QDI[Nle]SR-NH2; staple 16-23), which EC50 is on record?
Answer: 1 to 10 nM

Question: CCCC[C@H](NC(=O)[C@@H](NC(=O)[C@H](CC(=O)O)NC(=O)[C@H](CCC(N)=O)NC(=O)[C@H](CC(C)C)NC(=O)[C@H](C)NC(=O)[C@H](CCCCN)NC(=O)[C@H](CCCNC(=N)N)NC(=O)[C@H](C)NC(=O)[C@H](CO)NC(=O)[C@H](CC(C)C)NC(=O)[C@H](CCC(N)=O)NC(=O)[C@H](C)NC(=O)[C@H](CC(C)C)NC(=O)[C@@H](NC(=O)[C@H](CCCCN)NC(=O)[C@H](CCCNC(=N)N)NC(=O)[C@H](Cc1ccc(O)cc1)NC(=O)[C@H](CO)NC(=O)[C@H](C)NC(=O)[C@@H](NC(=O)[C@H](Cc1ccccc1)NC(=O)[C@@H](NC(=O)[C@H](C)NC(=O)[C@H](CC(=O)O)NC(=O)[C@H](C)NC(=O)[C@H](Cc1ccc(O)cc1)NC(C)=O)[C@@H](C)CC)[C@@H](C)O)C(C)C)[C@@H](C)CC)C(=O)N[C@@H](CO)C(=O)N[C@@H](CCCNC(=N)N)C(N)=O [SP-40] (Ac-YADAIFTASYRKVLAQLSARKALQDI[Nle]SR-NH2) was tested. Which EC50 did it give?
Answer: 1 to 10 nM

Question: For CCCC[C@H](NC(=O)[C@@H](NC(=O)[C@H](CC(=O)O)NC(=O)[C@H](CCC(N)=O)NC(=O)[C@H](CC(C)C)NC(=O)[C@H](C)NC(=O)[C@H](CCCCN)NC(=O)[C@H](CCCNC(=N)N)NC(=O)[C@H](C)NC(=O)[C@]1(C)CCCC=CCCC[C@](C)(NC(=O)[C@@H](NC(=O)[C@H](CCCCN)NC(=O)[C@H](CCCNC(=N)N)NC(=O)[C@H](Cc2ccc(O)cc2)NC(=O)[C@H](CO)NC(=O)[C@H](C)NC(=O)[C@@H](NC(=O)[C@H](Cc2ccccc2)NC(=O)[C@@H](NC(=O)[C@H](C)NC(=O)[C@H](CC(=O)O)NC(=O)[C@H](C)NC(=O)[C@H](Cc2ccc(O)cc2)NC)[C@@H](C)CC)[C@@H](C)O)C(C)C)C(=O)N[C@@H](C)C(=O)N[C@@H](CCC(N)=O)C(=O)N[C@@H](CC(C)C)C(=O)N1)[C@@H](C)CC)C(=O)N[C@@H](CO)C(=O)N[C@@H](CCCNC(=N)N)C(N)=O [SP-13] (H-[NMeY]ADAIFTASYRKV[S5]AQL[S5]ARKALQDI[Nle]SR-NH2; staple 14-18), which EC50 is on record?
Answer: 10 to 25 nM

Question: For CCCC[C@H](NC(=O)[C@@H](NC(=O)[C@H](CC(=O)O)NC(=O)[C@H](CCC(N)=O)NC(=O)[C@H](CC(C)C)NC(=O)[C@H](C)NC(=O)[C@H](CCCCN)NC(=O)[C@H](CCCNC(=N)N)NC(=O)[C@H](C)NC(=O)[C@H](CO)NC(=O)[C@H](CC(C)C)NC(=O)[C@H](CCC(N)=O)NC(=O)[C@]1(C)CCCC=CCCCCCC[C@@](C)(NC(=O)[C@@H](NC(=O)[C@H](Cc2ccccc2)NC(=O)[C@@H](NC(=O)[C@H](C)NC(=O)[C@H](CC(=O)O)NC(=O)[C@H](C)NC(=O)[C@H](Cc2ccc(O)cc2)NC)[C@@H](C)CC)[C@@H](C)O)C(=O)N[C@@H](CO)C(=O)N[C@@H](Cc2ccc(O)cc2)C(=O)N[C@@H](CCCNC(=N)N)C(=O)N[C@@H](CCCCN)C(=O)N[C@@H](C(C)C)C(=O)N[C@@H](CC(C)C)C(=O)N1)[C@@H](C)CC)C(=O)N[C@@H](CO)C(=O)N[C@@H](CCCNC(=N)N)C(N)=O [SP-25] (H-[NMeY]ADAIFT[R8]SYRKVL[S5]QLSARKALQDI[Nle]SR-NH2; staple 8-15), which EC50 is on record?
Answer: 1 to 10 nM

Question: With CCCC[C@H](NC(=O)[C@@H](NC(=O)[C@H](CC(=O)O)NC(=O)[C@H](CCC(N)=O)NC(=O)[C@H](CC(C)C)NC(=O)[C@H](C)NC(=O)[C@H](CCCCN)NC(=O)[C@H](CCCNC(=N)N)NC(=O)[C@H](C)NC(=O)[C@H](CO)NC(=O)[C@H](CC(C)C)NC(=O)[C@H](CCC(N)=O)NC(=O)[C@H](C)NC(=O)[C@H](CC(C)C)NC(=O)[C@@H](NC(=O)[C@H](CCCCN)NC(=O)[C@H](CCCNC(=N)N)NC(=O)[C@H](Cc1ccc(O)cc1)NC(=O)[C@H](CO)NC(=O)C(C)(C)NC(=O)[C@@H](NC(=O)[C@H](Cc1ccccc1)NC(=O)[C@@H](NC(=O)[C@H](C)NC(=O)[C@H](CC(=O)O)NC(=O)[C@H](C)NC(=O)[C@H](Cc1ccc(O)cc1)NC)[C@@H](C)CC)[C@@H](C)O)C(C)C)[C@@H](C)CC)C(=O)N[C@@H](CO)C(=O)N[C@@H](CCCNC(=N)N)C(N)=O [SP-41] (H-[NMeY]ADAIFT[Aib]SYRKVLAQLSARKALQDI[Nle]SR-NH2) as the compound, how does the EC50 read?
Answer: ≤ 1 nM

Question: How did the EC50 turn out when CCCC[C@H](NC(=O)[C@@H](NC(=O)[C@]1(C)CCCC=CCCC[C@](C)(NC(=O)[C@H](CCCNC(=N)N)NC(=O)[C@H](C)NC(=O)[C@H](CO)NC(=O)[C@H](CC(C)C)NC(=O)[C@H](CCC(N)=O)NC(=O)[C@H](C)NC(=O)[C@H](CC(C)C)NC(=O)[C@@H](NC(=O)[C@H](CCCCN)NC(=O)[C@H](CCCNC(=N)N)NC(=O)[C@H](Cc2ccc(O)cc2)NC(=O)[C@H](CO)NC(=O)[C@H](C)NC(=O)[C@@H](NC(=O)[C@H](Cc2ccccc2)NC(=O)[C@@H](NC(=O)[C@H](C)NC(=O)[C@H](CC(=O)O)NC(=O)[C@H](C)NC(=O)[C@H](Cc2ccc(O)cc2)NC)[C@@H](C)CC)[C@@H](C)O)C(C)C)C(=O)N[C@@H](C)C(=O)N[C@@H](CC(C)C)C(=O)N[C@@H](CCC(N)=O)C(=O)N1)[C@@H](C)CC)C(=O)N[C@@H](CO)C(=O)N[C@@H](CCCNC(=N)N)C(N)=O [SP-18] (H-[NMeY]ADAIFTASYRKVLAQLSAR[S5]ALQ[S5]I[Nle]SR-NH2; staple 21-25) was run?
Answer: 10 to 25 nM
